Assay results as given in ChEMBL document CHEMBL2331389, “Structure-based discovery of cellular-active allosteric inhibitors of FAK” (Bioorg Med Chem Lett, 2013).

Assays:
[1] = molecular target: Mitogen-activated protein kinase 14 (Homo sapiens, UniProt Q16539); assay: Inhibition of p38alpha (unknown origin)
[2] = molecular target: Dual specificity mitogen-activated protein kinase kinase 1 (Homo sapiens, UniProt Q02750); assay: Inhibition of MEK1 (unknown origin)
Aurora kinase B = Aurora kinase B (Homo sapiens, UniProt Q96GD4); assay: Inhibition of aurora-B (unknown origin)
Sequence of Aurora kinase B (Q96GD4 whole entry): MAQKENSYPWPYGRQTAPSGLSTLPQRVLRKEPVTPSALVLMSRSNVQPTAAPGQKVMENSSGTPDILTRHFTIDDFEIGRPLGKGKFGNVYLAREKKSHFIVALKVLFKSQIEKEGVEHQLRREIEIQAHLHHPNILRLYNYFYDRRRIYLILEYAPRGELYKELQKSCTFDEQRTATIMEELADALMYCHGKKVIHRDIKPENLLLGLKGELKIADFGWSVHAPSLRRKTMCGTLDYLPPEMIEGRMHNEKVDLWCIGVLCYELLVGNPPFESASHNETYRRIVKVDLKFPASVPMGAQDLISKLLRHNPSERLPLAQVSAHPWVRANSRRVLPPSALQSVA

[3] = molecular target: RAC-alpha serine/threonine-protein kinase (Homo sapiens, UniProt P31749); assay: Inhibition of Akt1 (unknown origin)
Sequence of RAC-alpha serine/threonine-protein kinase (P31749 whole entry): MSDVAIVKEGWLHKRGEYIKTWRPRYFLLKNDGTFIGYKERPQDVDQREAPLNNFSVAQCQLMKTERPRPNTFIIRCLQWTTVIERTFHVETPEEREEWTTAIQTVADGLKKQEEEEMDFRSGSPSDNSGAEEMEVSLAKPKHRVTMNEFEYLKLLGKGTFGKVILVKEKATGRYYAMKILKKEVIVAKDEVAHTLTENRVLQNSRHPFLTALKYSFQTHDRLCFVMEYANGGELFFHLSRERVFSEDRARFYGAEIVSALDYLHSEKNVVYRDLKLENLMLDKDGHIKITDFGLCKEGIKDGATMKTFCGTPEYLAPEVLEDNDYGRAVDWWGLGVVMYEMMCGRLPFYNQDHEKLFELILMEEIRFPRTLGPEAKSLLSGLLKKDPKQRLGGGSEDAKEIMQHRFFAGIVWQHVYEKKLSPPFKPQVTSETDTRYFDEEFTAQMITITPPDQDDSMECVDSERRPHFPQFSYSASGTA

[4] = molecular target: Proto-oncogene tyrosine-protein kinase Src (Homo sapiens, UniProt P12931); assay: Inhibition of Src (unknown origin)
Sequence of Proto-oncogene tyrosine-protein kinase Src (P12931 2-536 limits assumed): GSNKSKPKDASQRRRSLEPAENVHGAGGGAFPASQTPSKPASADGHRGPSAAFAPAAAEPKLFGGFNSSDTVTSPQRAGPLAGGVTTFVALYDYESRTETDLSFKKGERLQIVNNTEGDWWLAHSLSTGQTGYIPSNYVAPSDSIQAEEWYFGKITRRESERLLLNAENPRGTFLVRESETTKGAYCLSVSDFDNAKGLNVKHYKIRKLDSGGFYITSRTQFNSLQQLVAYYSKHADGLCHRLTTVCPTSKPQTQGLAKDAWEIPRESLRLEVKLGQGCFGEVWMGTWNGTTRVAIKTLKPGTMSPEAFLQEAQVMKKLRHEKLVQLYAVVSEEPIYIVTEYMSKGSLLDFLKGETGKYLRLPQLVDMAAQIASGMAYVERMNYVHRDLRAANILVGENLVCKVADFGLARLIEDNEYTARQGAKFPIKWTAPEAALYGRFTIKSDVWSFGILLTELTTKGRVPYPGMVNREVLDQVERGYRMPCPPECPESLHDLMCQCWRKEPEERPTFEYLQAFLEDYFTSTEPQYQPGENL

[5] = molecular target: Receptor tyrosine-protein kinase erbB-2 (Homo sapiens, UniProt P04626); assay: Inhibition of HER2 (unknown origin)
Sequence of Receptor tyrosine-protein kinase erbB-2 (P04626 whole entry): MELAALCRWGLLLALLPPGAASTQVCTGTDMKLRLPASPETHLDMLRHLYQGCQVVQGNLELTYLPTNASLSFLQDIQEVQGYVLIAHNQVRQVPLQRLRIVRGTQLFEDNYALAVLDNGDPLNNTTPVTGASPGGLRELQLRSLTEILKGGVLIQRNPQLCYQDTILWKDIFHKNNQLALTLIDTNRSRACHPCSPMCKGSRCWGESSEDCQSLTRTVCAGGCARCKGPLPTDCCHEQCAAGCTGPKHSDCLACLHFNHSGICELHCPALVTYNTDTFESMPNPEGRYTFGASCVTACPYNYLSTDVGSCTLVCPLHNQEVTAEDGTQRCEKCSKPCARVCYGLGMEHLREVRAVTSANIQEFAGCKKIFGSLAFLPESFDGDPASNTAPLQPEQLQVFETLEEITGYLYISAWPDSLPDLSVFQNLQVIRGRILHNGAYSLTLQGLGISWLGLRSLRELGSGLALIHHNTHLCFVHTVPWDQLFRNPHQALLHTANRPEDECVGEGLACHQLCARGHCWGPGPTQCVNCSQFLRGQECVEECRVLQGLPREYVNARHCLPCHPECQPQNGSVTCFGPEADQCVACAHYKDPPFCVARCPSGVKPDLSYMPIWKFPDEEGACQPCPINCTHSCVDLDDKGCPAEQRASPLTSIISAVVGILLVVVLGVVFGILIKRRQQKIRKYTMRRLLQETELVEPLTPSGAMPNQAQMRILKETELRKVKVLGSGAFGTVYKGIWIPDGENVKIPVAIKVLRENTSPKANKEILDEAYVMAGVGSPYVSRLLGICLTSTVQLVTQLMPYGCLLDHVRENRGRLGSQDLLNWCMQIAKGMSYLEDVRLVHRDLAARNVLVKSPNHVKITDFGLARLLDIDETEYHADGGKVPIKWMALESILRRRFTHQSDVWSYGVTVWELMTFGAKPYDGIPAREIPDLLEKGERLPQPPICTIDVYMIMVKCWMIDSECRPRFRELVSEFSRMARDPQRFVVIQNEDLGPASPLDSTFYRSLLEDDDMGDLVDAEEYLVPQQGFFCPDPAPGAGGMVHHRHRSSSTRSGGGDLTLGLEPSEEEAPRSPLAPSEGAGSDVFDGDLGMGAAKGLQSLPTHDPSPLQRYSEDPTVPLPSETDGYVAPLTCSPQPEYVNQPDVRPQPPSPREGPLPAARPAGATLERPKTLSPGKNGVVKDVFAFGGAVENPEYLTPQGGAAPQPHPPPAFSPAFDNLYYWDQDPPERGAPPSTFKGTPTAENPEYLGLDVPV

Focal adhesion kinase 1 [6] = molecular target: T1, Focal adhesion kinase 1 (Homo sapiens, UniProt Q05397)
T1 sequence (Q05397 whole entry): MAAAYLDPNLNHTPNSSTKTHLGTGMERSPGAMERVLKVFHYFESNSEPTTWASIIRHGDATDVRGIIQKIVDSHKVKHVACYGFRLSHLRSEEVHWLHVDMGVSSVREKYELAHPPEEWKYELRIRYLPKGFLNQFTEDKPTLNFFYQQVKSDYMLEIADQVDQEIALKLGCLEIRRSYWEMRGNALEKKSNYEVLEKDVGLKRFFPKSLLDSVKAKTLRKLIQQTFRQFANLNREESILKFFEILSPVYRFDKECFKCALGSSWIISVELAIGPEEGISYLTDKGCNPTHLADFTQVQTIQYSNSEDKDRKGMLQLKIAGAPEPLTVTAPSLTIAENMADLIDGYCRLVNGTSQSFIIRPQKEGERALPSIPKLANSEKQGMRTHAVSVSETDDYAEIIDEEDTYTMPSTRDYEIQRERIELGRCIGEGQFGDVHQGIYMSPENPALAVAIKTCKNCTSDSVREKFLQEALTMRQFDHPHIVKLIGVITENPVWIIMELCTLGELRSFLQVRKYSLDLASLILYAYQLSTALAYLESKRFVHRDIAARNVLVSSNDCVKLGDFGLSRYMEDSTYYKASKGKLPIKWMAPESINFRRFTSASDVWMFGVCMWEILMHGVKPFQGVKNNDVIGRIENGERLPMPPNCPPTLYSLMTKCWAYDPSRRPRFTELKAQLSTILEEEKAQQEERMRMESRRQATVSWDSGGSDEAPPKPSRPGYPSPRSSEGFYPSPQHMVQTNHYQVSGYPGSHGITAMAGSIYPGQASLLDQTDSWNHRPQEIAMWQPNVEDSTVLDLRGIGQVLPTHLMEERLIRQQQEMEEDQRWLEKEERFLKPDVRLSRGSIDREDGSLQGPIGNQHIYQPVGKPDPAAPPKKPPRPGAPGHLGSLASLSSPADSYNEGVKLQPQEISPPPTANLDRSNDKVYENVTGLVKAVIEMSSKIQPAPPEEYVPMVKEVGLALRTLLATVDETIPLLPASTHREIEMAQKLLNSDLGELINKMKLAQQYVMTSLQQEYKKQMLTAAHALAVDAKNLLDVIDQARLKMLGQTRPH

[7] = molecular target: Protein-tyrosine kinase 2-beta (Homo sapiens, UniProt Q14289); assay: Inhibition of Pyk2 (unknown origin)
Focal adhesion kinase 1 [8] = molecular target: T1, Focal adhesion kinase 1; remark: listed apart in the source

Sequence of Mitogen-activated protein kinase 14 (Q16539 whole entry): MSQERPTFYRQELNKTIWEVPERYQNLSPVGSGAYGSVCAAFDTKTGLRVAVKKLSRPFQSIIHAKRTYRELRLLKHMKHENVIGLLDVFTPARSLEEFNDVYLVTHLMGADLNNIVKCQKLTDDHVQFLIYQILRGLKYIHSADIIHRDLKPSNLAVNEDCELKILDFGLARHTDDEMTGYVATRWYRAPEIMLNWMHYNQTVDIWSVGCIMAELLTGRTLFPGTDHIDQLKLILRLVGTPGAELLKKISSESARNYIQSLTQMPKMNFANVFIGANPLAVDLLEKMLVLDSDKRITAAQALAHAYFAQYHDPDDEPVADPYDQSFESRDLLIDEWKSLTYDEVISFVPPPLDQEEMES
Sequence of Dual specificity mitogen-activated protein kinase kinase 1 (Q02750 whole entry): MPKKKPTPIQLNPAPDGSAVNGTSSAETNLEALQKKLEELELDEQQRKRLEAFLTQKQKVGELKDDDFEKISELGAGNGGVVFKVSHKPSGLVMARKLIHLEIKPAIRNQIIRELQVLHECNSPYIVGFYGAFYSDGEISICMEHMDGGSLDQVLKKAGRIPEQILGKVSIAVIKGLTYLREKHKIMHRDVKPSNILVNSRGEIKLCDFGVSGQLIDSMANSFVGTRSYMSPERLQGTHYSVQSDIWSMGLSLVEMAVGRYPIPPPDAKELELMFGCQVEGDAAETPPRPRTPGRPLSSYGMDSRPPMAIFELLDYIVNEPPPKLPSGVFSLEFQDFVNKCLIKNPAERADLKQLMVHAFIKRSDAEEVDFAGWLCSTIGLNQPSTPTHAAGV

SMILES | IC50 [1] | IC50 [2] | IC50 (Aurora kinase B) | IC50 [3] | IC50 [4] | IC50 [5] | IC50 (Focal adhesion kinase 1 [6]) | IC50 [7] | IC50 (Focal adhesion kinase 1 [8])
CCc1ccc(-c2ccc3c(c2)-c2n[nH]cc2S(=O)(=O)N3C)cc1 | > 10 µM | 8.6 µM | 5.1 µM | > 10 µM | > 10 µM | > 10 µM | – | – | –
CCc1ccc(-c2ccc3c(c2)-c2c(cnn2CC)S(=O)(=O)N3C)cc1 | – | – | – | – | – | – | 2100 nM | – | –
CN1c2ccc(NCc3ccc(C(C)(C)C)cc3)cc2-c2c(cnn2C)S1(=O)=O | > 10 µM | > 10 µM | > 10 µM | > 10 µM | > 10 µM | > 10 µM | – | > 10 µM | –
CCc1ccc(-c2ccc3c(c2)-c2c(cnn2C)S(=O)(=O)N3C)cc1 | > 10 µM | > 10 µM | > 10 µM | > 10 µM | > 10 µM | > 10 µM | 77 nM | > 10 µM | 420 nM
CCc1ccc(-c2ccc3c(c2)-c2nn(C)cc2S(=O)(=O)N3C)cc1 | – | – | – | – | – | – | > 30000 nM | – | –
CN1c2ccc(C(=O)Nc3ccc(F)cc3)cc2-c2c(cnn2C)S1(=O)=O | – | – | – | – | – | – | > 30000 nM | – | –
